US20100292233A1, “DIHYDRO-1H-PYRROLO[1,2-A]INDOL-1-YL CARBOXYLIC ACID DERIVATIVES WHICH ACT AS S1P1 AGONISTS” (ARENA PHARMACEUTICALS, INC., priority 2008, published 2010)

Columns and labels:
[1] = tested on: NOD/Ltj mice; assay: Cyclophosphamide induced type 1 diabetes in mice; assay type: in vivo, mouse; conditions: oral, once a day from day 0 until day 25; 3 and 10 mg/kg; FIG. 6
Procedure: Animals: Baseline blood glucose measurements were taken from 9-10 week old female NOD/Ltj mice (Jackson Laboratory, Bar Harbor, Me.) to ensure that they are normoglycemic (blood glucose is 80-120 mg/dL) prior to initiation of the experiment. Blood glucose was measured from tail bleeds using a One Touch Ultra® kit and test strips (LifeScan, Milpitas, Calif.).
Cyclophosphamide induction of Type 1 diabetes: On day 0 and day 14, normoglycemic NOD mice were injected intraperitoneally with 4 mg cyclophosphamide monohydrate (200 mg/kg) dissolved in 0.9% saline. If mice were diabetic (blood glucose is >250 mg/dL) they were not given a booster dose of cyclophosphamide on day 14.
Drug Treatment: Mice were dosed orally, with vehicle or test compound, once a day from day 0 until day 25. Compounds were suspended in 0.5% methyl cellulose vehicle using a sonicator to ensure uniform suspension. Mice were weighed twice weekly and were dosed according to weight. Dosing volume is 5 mL/kg. Test compound was dosed at 3 mg/kg and 10 mg/kg. Blood glucose was measured twice weekly. After dosing was completed at day 25, the mice continued to be monitored and blood glucose measurements were taken once a week for 3 weeks.

[2] = tested on: C57BL/6 mice; assay: Mouse skin allograft survival; assay type: in vivo; conditions: oral, once a day; 1, 3 and 10 mg/kg; FIG. 5
Procedure: Animals: Female BALB/cJ mice (6 to 7 weeks of age at start of study) (Jackson Laboratory, Bar Harbor, Me.) were housed four per cage and maintained in a humidity—(40-60%) and temperature—(68-72° F.) controlled facility on a 12 hr:12 hr light/dark cycle (lights on at 6:30 am) with free access to food (Harlan Teklad, Orange, Calif., Rodent Diet 8604) and water. Female C57BL/6 mice (8 to 10 weeks of age at start of study) (Jackson Laboratory, Bar Harbor, Me.) were similarly housed and maintained. Mice were allowed one week of habituation to the animal facility before testing. […]
Clinical scoring: Skin allografts were inspected and digital images recorded daily until rejection, which was defined as the first day on which more than 80% of the graft is necrotic. […] In an optional related study, on posttransplantation day 5 isolated lymphocytes from peripheral lymph nodes and spleen were counted and characterized for activation markers (e.g., T-cell activation markers) by flow cytometry. Also on day 5, grafts were removed from transplanted recipients, cut into small fragments, digested with collagenase and sedimented over Ficoll-Paque (Pharmacia Biotech, Uppsala, Sweden) to isolate graft-infiltrating lymphocytes, which were counted and characterized for activation markers (e.g., T-cell activation markers) by flow cytometry. […]

[3] = tested on: Lewis rats; assay: Collagen-induced arthritis in rats (ankle diameter); assay type: in vivo; conditions: rat, p.o., q.d., day 0 through day 16; 1, 3 and 10 mg/kg; FIG. 4
Procedure: Female Lewis rats were used in this study. Acclimated animals were anesthetized with isoflurane and given the first collagen injection (day 0). On day 6, they were anesthetized again for the second collagen injection. Collagen was prepared by making a 4 mg/mL solution in 0.01 N acetic acid. Equal volumes of collagen and incomplete Freund's adjuvant were emulsified by hand mixing until a bead of this material held its form when placed in water. Each animal received 300 μL of the mixture each time, spread over 3 subcutaneous sites on the back.
Treatment (p.o., q. d., 5 mL/kg dosing volume) began on day 0 and continued through day 16 with vehicle or compounds given at 24 h intervals. Rats were weighed on days 0, 3, 6 and 9 through 17 and caliper measurements of the ankles taken on days 9 through 17. The 2nd enantiomer of Compound 2 (isolated after resolution of compound 2 by HPLC, with a retention time of 14.9 min per the conditions reported in Example 1.25) was dosed at 1, 3 and 10 mg/kg.

[4] = tested on: C57BL/6 mice; assay: MOG-induced EAE in mice; assay type: in vivo, mouse; conditions: oral, once a day from day 3 until day 21; 1, 3 and 10 mg/kg; FIG. 3
Procedure: Animals: Female C57BL/6 mice (8 to 10 weeks of age at start of study) (Jackson Laboratory, Bar Harbor, Me.) were housed four per cage and maintained in a humidity—(40-60%) and temperature—(68-72° F.) controlled facility on a 12 hr:12 hr light/dark cycle (lights on at 6:30 am) with free access to food (Harlan Teklad, Orange, Calif., Rodent Diet 8604) and water. Mice were allowed one week of habituation to the animal facility before testing.
Induction of EAE: Mice were immunized subcutaneously, 50 μL per hind flank, with a total of 100 μg MOG35-55 peptide emulsified 1:1 with Complete Freund's adjuvant containing 4 mg/mL heat-killed Mycobacterium tuberculosis. Mice also received 200 ng pertussis toxin intraperitoneally on the day of immunization and 48 hours later.
Clinical scoring: Severity of disease symptoms was scored as follows (in increasing order of severity): 0=normal; 1=limp tail OR hind limb weakness; 2=limp tail AND limb weakness/weakness of 2 or more limbs; 3=severe limb weakness or single limb paralysis; 4=paralysis of 2 or more limbs; 5=death.
Drug treatment: Mice were dosed orally, with vehicle or test compound, once a day from day 3 until day 21. Dosing volume is 5 mL/kg. […] Mice were monitored daily from day 7 onward for disease symptoms. After the last dose on day 21, disease progression was monitored daily for 2 more weeks.

For `N#Cc1cc(OC(F)(F)F)cc(-c2nc(-c3ccc4c(c3)cc3n4CCC3CC(=O)O)no2)c1` (stereo not drawn) [2nd enantiomer of Compound 2, 2-(7-(5-(3-Cyano-5-(trifluoromethoxy)phenyl)-1,2,4-oxadiazol-3-yl)-2,3-dihydro-1H-pyrrolo[1,2-a]indol-1-yl)acetic Acid], the “activity in the mouse type I diabetes assay (blood glucose vs vehicle)” value [1] was “exhibited activity in the mouse type I diabetes assay”, the “activity in the mouse skin allograft assay (time of rejection vs vehicle)” value [2] was “exhibited activity in the mouse skin allograft assay” and the “reduction of mean ankle diameter vs vehicle” value [3] was “exhibited activity for reducing mean ankle diameter”. The “activity in the mouse EAE assay (severity of disease symptoms vs vehicle)” value [4] was “exhibited activity in the mouse EAE assay”.
